As a reminder, the EC50 is the concentration at which the effect is half-maximal.

The structures appear in SMILES notation. Where a name gives a salt, the structure may show the parent alone. Read-outs that look alike come from different tables or passages of the source.

The record followed here is US4629737A, “Secondary amines and use in pharmaceutical compositions” (Beecham Group p.l.c., priority 1982, dated 1986).

In assay [1] the test system is platelet aggregation in human whole blood. Briefly: Collagen-induced platelet aggregation in human whole blood in vitro. The assay is classed as cell-based. As to conditions: 3 mins pre-incubation. The method, then:
Collagen-induced platelet aggregation in human whole blood in vitro.
Collagen added to stirred citrated blood causes platelet aggregation. As the platelets aggregate, the concentration of single platelets falls. […] Inhibitors of aggregation, such as aspirin and dipyridamole, reduce the response to collagen.
Blood drawn from volunteers who denied taking aspirin within the previous seven days was mixed with 0.1 vol 129 mM trisodium citrate, dispensed into 0.5 ml aliquots and kept at 25° C. Collagen (Hormon-Chemie, Munich) or 154 mM NaCl (control) was added to each aliquot of blood stirred at 1100 rpm in an aggregometer at 37° C. after 3 mins pre-incubation with compound or appropriate solvent. Aggregates were fixed by addition of 0.5 vol 4.5% formaldehyde or 0.05 vol phosphate-buffered glutaraldehyde. Single platelets were counted electronically. Responses, expressed as percent fall in platelet count, were obtained to a range of collagen concentrations. The concentration producing 50% maximal effect (EC50) was estimated from log10 concentration-response curves. Dose-ratios were calculated by dividing the EC50 obtained in the presence of compound under test by the control EC50.

The subject of assay [2] is blood glucose. Briefly: Hypoglycaemic activity: reduction in area under blood glucose curve after glucose load. The conditions noted are these: Mus musculus, read-out: % Reduction in area under Blood Glucose Curve. Format: in vivo, Female CFLP mice. In a few lines:
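Female CFLP mice (~25 g, 24 h fasted, n=6) dosed orally with aqueous compound; water controls. Glucose 1 g/Kg s.c. given 30 min later, tail blood glucose sampled every 30 min for 120 min. Activity defined as significant (P<0.05) reduction versus controls; 2 h glucose AUC compared with controls.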

The nature of assay [3]: Effect on energy expenditure of mice. The assay is classed as in vivo, Female CFLP mice. The conditions noted are these: Mus musculus; for response vs control in vivo at 21.4 mg/kg: po; for response vs control in vivo at 23.9 mg/kg: 23.9 mg/kg po. In a few lines: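 Female CFLP mice (~24 g, fed ad lib; n=12 per group) dosed orally with compound as the hydrochloride (1 mol HCl per mol) in water, vehicle controls receiving water. Energy expenditure over 21 h post-dose calculated from outflow air volume and oxygen content by the Weir method.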

For assay [4], the system named is right atrium. In words: Isolated rat atria screen: rate of spontaneously beating right atrium. Further details: species or system Sprague-Dawley male rats. The conditions noted are these: maximal effect relative to isoprenaline maximum (=1), read-out: Rate i.a. (intrinsic activity). The method, then: (§1) Sprague-Dawley male rats (300-400 g) are killed and the right and left atria dissected out independently and mounted on a combined tissue holder/electrode. The tissues are then immersed in a glass bath containing Krebs solution maintained at 32° C. The rate of the spontaneously beating right atrium (via an isometric transducer and a ratemeter) and the tension of the electrically paced left atrium (via an isometric transducer) are recorded on an M19 chart recorder.
(§2) After an initial stabilization period, the tissues are exposed to a maximal concentration of isoprenaline (10^-7 M). The tissues are then washed several times until rate and tension return to baseline level. A dose-response curve to the test compound is then carried out.
(§3) Responses to each concentration of test compound are expressed as a percentage of the maximal responses to isoprenaline. Results are given in the form of (a) intrinsic activity (i.a.) (maximal effect of test compound with respect to isoprenaline maximum, i.e. isoprenaline intrinsic activity=1) and (b) EC50 (the molar concentration at which the test compound produces 50% of its own maximum response).

Assay [5] has as its system left atrium. Briefly: Isolated rat atria screen: tension of electrically paced left atrium. Further details: species or system Sprague-Dawley male rats. On the procedure:
as §1, §2, §3

The test system of assay [6] is rat ear. In words: Topical anti-inflammatory activity, croton oil induced rat ear inflammation. Format: in vivo. As to conditions: 1.00 mg/rat ear; 6 h; shown by significant (5% level) reduction in ear weight vs non-drug treated control. On the procedure:
The method used is based on that described by G. Tonelli et al (Endocrinology, 77, 625-634, 1965). An inflammation is induced in the rat ear by the application of 50 μl of a 1% solution of croton oil in tetrahydrofuran, test compounds being dissolved in the irritant vehicle. After 6 hours the inflammation is assessed by killing the animals and weighing the ears. Topical anti-inflammatory activity of a compound is generally considered to be shown when a significant (5% level) reduction in ear weight is seen compared to non-drug treated control.

Setting [7] is: final concentration in whole blood 200 μM.

Turning to `CC(=O)Oc1ccccc1C(=O)O` [Aspirin, reference compound], the “DOSE RATIO (EC50 of collagen with compound / control EC50)” value in assay [1] (setting [7]) is on record as 2.0 ± 0.1.
With `OCCN(CCO)c1nc(N2CCCCC2)c2nc(N(CCO)CCO)nc(N3CCCCC3)c2n1` [Dipyridamole, reference compound], the “DOSE RATIO (EC50 of collagen with compound / control EC50)” value in assay [1] (setting [7]) is on record as 3.7 ± 1.1.
`COC(=O)COc1ccc(CC(C)NCC(OC)c2cccc(Cl)c2)cc1.Cl` (stereo not drawn) [Example 1, N-[2-(4-Carbomethoxymethoxyphenyl)-1-methylethyl]-2-methoxy-2-(3-chlorophenyl)ethanamine hydrochloride]: the inhibition in vivo at 0.25 µmol/kg in assay [2] (po, 2 h) turned out to be 47%. In addition, the response vs control in vivo at 21.4 mg/kg in assay [3] (3 h, read-out: Mean Energy Expenditure (0-3 h)) came out at 151%; in assay [3] (21 h, read-out: Mean Energy Expenditure (0-21 h)), 138%. Moreover, the Emax worked out at 0% in assay [4] and 30% in assay [5] (maximal effect relative to isoprenaline maximum (=1), read-out: Tension i.a. (intrinsic activity)). A half-maximal response in assay [5] (concentration producing 50% of its own maximum response) (EC50) required 30 µM. Moreover, the “Topical anti-inflammatory ACTIVITY” value in assay [6] is reported as “Active”. Besides, in assay [1] (final concentration in whole blood 300 μM), the “DOSE RATIO (EC50 of collagen with compound / control EC50)” value was determined as 6.9.
Take `CCCOC(CNC(C)Cc1ccc(OCCNC)cc1)c1cccc(Cl)c1` (stereo not drawn) [Example 29, N-[2-(4-(2-Methylaminoethoxy)phenyl)-1-methylethyl]-2-^n propoxy-2-(3-chlorophenyl)ethanamine dihydrochloride]: the inhibition in vivo at 25 µmol/kg in assay [2] (25 μmol/Kg oral, 2 h after glucose 1 g/Kg s.c., vs control) was 43%. Also, the response vs control in vivo at 23.9 mg/kg in assay [3] (0-3 h, read-out: Mean Energy Expenditure (0-3 h)) stood at 144%; in assay [3] (0-21 h, read-out: Mean Energy Expenditure (0-21 h)) it was 118%. Moreover, in assay [6], the “Topical anti-inflammatory ACTIVITY” value is recorded as “Active”. The “DOSE RATIO (EC50 of collagen with compound / control EC50)” value in assay [1] (final concentration in whole blood 100 μM) is 10.8.
